Legend:
[1] = system: TSG101; assay: TSG101 protein levels by immunoblotting in T29H cells; assay type: cell-based, human; conditions: inhibitor pretreatment 24 hrs (FTI-277 10 μM, U0126 20 μM, LY294002 10 μM)
Text: Antigen-antibody complexes were detected by enhanced chemiluminescence (Pierce).

[2] = system: p14ARF; conditions: T29H cells
Description: Protein concentrations of cell lysates were assayed with the Bio-Rad protein assay reagent. Equal amounts of protein were loaded onto 12% SDS polyacrylamide mini-gels (Bio-Rad) or 10% Tricine-SDS gels and transferred to PVDF membranes. PVDF blots and the remaining polyacrylamide gels were stained with Ponceau S and Coomassie Blue, respectively, to ensure equal loading and even transfer of the samples. After being blocked overnight in 5% milk in TBS-Tween, blots were incubated with corresponding primary antibodies for 1.5 hrs, followed by HRP-conjugated secondary antibody (1:4000, Bio-Rad) for 45 min. Antigen-antibody complexes were detected by enhanced chemiluminescence (Pierce).

[3] = system: TSG101 mRNA; assay: TSG101 mRNA levels by semi-quantitative PCR in T29 and T29H cells; assay type: cell-based, human; conditions: FTI-277 10 μM 24 hours
Description: Total RNA was isolated from cells using Trizol reagent (Invitrogen), and concentration was determined by absorbance at 260 nm. Real-Time PCR analysis was carried out using fluorescent TSG101 primers on an Applied Biosystems Prism 7000 Sequence Detection System. RT-PCR was carried out for TSG101 and HIF-1α using 1 μg of isolated total RNA under the following parameters: 94° C. 1 min, 57° C. 1 min and 72° C. 1.5 min, 35 cycles. Primers used for RT-PCR were TSG10 forward [NT] ID NO: 1), reverse [NT] ID NO: 2), CITED2 forward [NT] ID NO: 3), reverse [NT] ID NO: 4), HIF-1a ? forward [NT] ID NO: 5), reverse [NT] ID NO: 6). […] This up-regulation was further confirmed by immunoblotting analysis of equal amount of independent total protein lysates from pooled T29 and […] cells using an antibody specific to TSG101 (FIG. 1C). To check if the apparent increase in TSG101 protein was due to the transcriptional regulation of the TSG101 gene, the levels of TSG101 mRNA in T29 and […] cells were examined by semiquantitive (FIG. 1D) and real-time PCRs (FIG. 1E). […] Furthermore, the levels of TSG101 mRNA were not affected by FTI-277, a farnesyl transferase inhibitor that blocks the activation of RAS (FIG. 1D).

[4] = system: RAS-GTP; conditions: T29H cells, data not shown

| Structure (SMILES) | TSG101 protein levels [1] | cellular level of p14ARF [2] | levels of TSG101 mRNA [3] | RAS-GTP levels [4] |
| --- | --- | --- | --- | --- |
| N#CC(=C(/N)Sc1ccccc1N)/C(C#N)=C(\N)Sc1ccccc1N [U0126] | significantly decreased | suppressed | – | – |
| COC(=O)[C@H](CCSC)NC(=O)c1ccc(NC[C@@H](N)CS)cc1-c1ccccc1 [FTI-277] | significant decrease | – | not affected | significantly inhibited |
